Data: patent US20210120813A1, “INHIBITORS OF THE SHIKIMATE PATHWAY” (PEPTICOM LTD., priority 2018, published 2021)
Several values for one entry are separate records, joined by “and”; a condition that tells them apart may be missing. Identical values can stand only once. Entries after “also recorded” stand apart in the source; their conditions may differ. Like-named read-outs stand apart in the source and are kept apart here.

Key:
[1] = system: EPSPS (wild type) from common wheat; type: cell-based, Triticum Aestivum; settings: for ability of rescued AB2829 bacteria cells (wild type EPSPS) to grow on M9 minimal media: 40 h, 0.1% rhamnose
[2] = system: EPSPS (TIPS mutant) from common wheat; type: cell-based, Triticum Aestivum
[3] = system: EPSPS (TIPS mutant) from common wheat; type: cell-based, Triticum Aestivum; remark: listed apart in the source
TIPS EPSPS = TIPS EPSPS (Triticum aestivum, UniProt B5M6A1, P172S/T168I); type: biochemical; settings: for effect of the TIPS mutation on inhibition of EPSPS activity (IC50 WT vs TIPS): WT vs TIPS EPSPS enzyme
Chain of TIPS EPSPS (B5M6A1 66-510 P172S/T168I limits assumed): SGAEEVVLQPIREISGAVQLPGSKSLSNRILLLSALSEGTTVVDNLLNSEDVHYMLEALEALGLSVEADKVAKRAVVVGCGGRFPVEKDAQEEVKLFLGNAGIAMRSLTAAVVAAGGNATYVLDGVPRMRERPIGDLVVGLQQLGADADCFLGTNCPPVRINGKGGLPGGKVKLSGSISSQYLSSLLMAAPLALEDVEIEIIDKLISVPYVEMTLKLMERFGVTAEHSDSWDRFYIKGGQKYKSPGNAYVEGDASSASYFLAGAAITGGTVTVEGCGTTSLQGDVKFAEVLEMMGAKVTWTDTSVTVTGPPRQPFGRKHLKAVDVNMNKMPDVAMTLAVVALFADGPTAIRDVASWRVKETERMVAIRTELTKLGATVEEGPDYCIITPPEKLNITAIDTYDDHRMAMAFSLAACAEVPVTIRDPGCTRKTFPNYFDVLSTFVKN

WT EPSPS = WT EPSPS (Triticum aestivum, UniProt B5M6A1); assay: In-vitro kinetics of EPSPS enzymatic activity (Malachite green phosphate release), WT; type: biochemical; settings: apparent Km increases, Vmax unaffected; glyphosate vs PEP, compound 4 vs S3P
Chain of WT EPSPS (B5M6A1 66-510 limits assumed): as the sequence (B5M6A1 66-510 P172S/T168I limits assumed) above, with I103T, S107P counted along it

[4] = system: Lolium multiflorum (LOLMU); assay: Weed efficacy on petri dishes, germination and visual notation, LOLMU; type: in vivo; settings: for LOLMU Visual notation Mean: scale 0 = as control to 100
[5] = system: Chenopodium album (CHEAL); assay: Weed efficacy on petri dishes, germination and visual notation, CHEAL; type: in vivo; settings: for CHEAL Visual notation Mean: scale 0 = as control to 100

COc1c(C(=O)O)ccc([N+](=O)[O-])c1O [Compound 1, 3-Hydroxy-2-methoxy-4-nitrobenzoic acid]
% bacterial growth relative to rescue with wild type EPSPS at 5 mM, 40 h post application [1]: −15% | ability of rescued AB2829 bacteria cells (wild type EPSPS) to grow on M9 minimal media ([1]; 5 mM): completely abolish | % bacterial growth relative to rescue with mutant EPSPS at 20 mM, 40 h post application [2]: −79% | ability of rescued AB2829 bacteria cells (EPSPS TIPS) to grow on M9 minimal media ([2]; 20 mM, 40 h, 0.1% rhamnose): completely abolish

COc1ccc(C(=O)O)cc1O [Compound 2, 3-Hydroxy-4-methoxybenzoic acid]
% bacterial growth relative to rescue with wild type EPSPS at 5 mM, 40 h post application [1]: 27% | ability of rescued AB2829 bacteria cells (wild type EPSPS) to grow on M9 minimal media ([1]; 5 mM): completely abolish | % bacterial growth relative to rescue with mutant EPSPS at 20 mM, 40 h post application [2]: −25% | ability of rescued AB2829 bacteria cells (EPSPS TIPS) to grow on M9 minimal media ([2]; 20 mM, 40 h, 0.1% rhamnose): completely abolish

O=C(O)c1cccc(O)c1O [Compound 3, 2,3-Dihydroxybenzoic acid]
growth with gradually increasing rhamnose (EPSPS TIPS titration) ([3]; 2.5 mM, rhamnose 0%-0.4%, 60 h): facilitates growth in a gradual manner | % bacterial growth relative to rescue with wild type EPSPS at 5 mM, 40 h post application [1]: 54% | ability of rescued AB2829 bacteria cells (wild type EPSPS) to grow on M9 minimal media ([1]; 5 mM): completely abolish | % bacterial growth relative to rescue with mutant EPSPS at 20 mM, 40 h post application [2]: −105% | ability of rescued AB2829 bacteria cells (EPSPS TIPS) to grow on M9 minimal media ([2]; 20 mM, 40 h, 0.1% rhamnose): completely abolish

Nc1cc(O)c([N+](=O)[O-])cc1C(=O)O [Compound 4, 2-Amino-4-hydroxy-5-nitrobenzoic acid]
growth with gradually increasing rhamnose (EPSPS TIPS titration) ([3]; 1.0 mM, rhamnose 0%-0.4%, 60 h): facilitates growth in a gradual manner | inhibition of the TIPS mutant relative to glyphosate (TIPS EPSPS; IC50 comparison, TIPS EPSPS enzyme): one order of magnitude better | effect of the TIPS mutation on inhibition of EPSPS activity (IC50 WT vs TIPS) (TIPS EPSPS): hardly affected | % bacterial growth relative to rescue with wild type EPSPS at 5 mM, 40 h post application [1]: −87% | ability of rescued AB2829 bacteria cells (wild type EPSPS) to grow on M9 minimal media ([1]; 5 mM): completely abolish | mode of EPSPS inhibition (Michaelis-Menten and Lineweaver-Burk plots) (WT EPSPS): competitive inhibitor | % bacterial growth relative to rescue with mutant EPSPS at 20 mM, 40 h post application [2]: −94% | ability of rescued AB2829 bacteria cells (EPSPS TIPS) to grow on M9 minimal media ([2]; 20 mM, 40 h, 0.1% rhamnose): completely abolish

O=C(O)c1cccc(C(=O)O)c1O [Compound 5, 2-Hydroxy-1,3-benzenedicarboxylic acid]
% bacterial growth relative to rescue with mutant EPSPS at 20 mM, 40 h post application [2]: −220% | ability of rescued AB2829 bacteria cells (EPSPS TIPS) to grow on M9 minimal media ([2]; 20 mM, 40 h, 0.1% rhamnose): completely abolish

O=C(O)c1cc([N+](=O)[O-])cc([N+](=O)[O-])c1O [Compound 6, 2-Hydroxy-3,5-dinitrobenzoic acid]
% bacterial growth relative to rescue with mutant EPSPS at 20 mM, 40 h post application [2]: −285% | ability of rescued AB2829 bacteria cells (EPSPS TIPS) to grow on M9 minimal media [2]: completely abolish

Nc1ccc([N+](=O)[O-])cc1C(=O)O [Compound 7, 2-Amino-5-nitrobenzoic acid]
% bacterial growth relative to rescue with mutant EPSPS at 20 mM, 40 h post application [2]: −260% | ability of rescued AB2829 bacteria cells (EPSPS TIPS) to grow on M9 minimal media ([2]; 20 mM, 40 h, 0.1% rhamnose): completely abolish

CNc1ccc([N+](=O)[O-])cc1C(=O)O [Compound 8, -(Methylamino)-5-nitrobenzoic acid]
LOLMU Germination (%) Mean ([4]; 50 mg a.i./L, 10 DAT): 93.2% | LOLMU Visual notation Mean ([4]; 50 mg a.i./L, 10 DAT): 3.5 | LOLMU Germination (%) Mean ([4]; 500 mg a.i./L, 10 DAT): 91.1% | LOLMU Visual notation Mean ([4]; 500 mg a.i./L, 10 DAT): 6.6 | LOLMU Germination (%) Mean ([4]; 5000 mg a.i./L, 10 DAT): 30.4% | LOLMU Visual notation Mean ([4]; 5000 mg a.i./L, 10 DAT): 64.8 | CHEAL Germination (%) Mean ([5]; 50 mg a.i./L, 10 DAT): 90.0% | CHEAL Visual notation Mean ([5]; 50 mg a.i./L, 10 DAT): 21.8 | CHEAL Germination (%) Mean ([5]; 500 mg a.i./L, 10 DAT): 55.0% | CHEAL Visual notation Mean ([5]; 500 mg a.i./L, 10 DAT): 83.8 | CHEAL Germination (%) Mean ([5]; 5000 mg a.i./L, 10 DAT): 34.5% | CHEAL Visual notation Mean ([5]; 5000 mg a.i./L, 10 DAT): 95.0 | % bacterial growth relative to rescue with mutant EPSPS at 20 mM, 40 h post application [2]: −272% | ability of rescued AB2829 bacteria cells (EPSPS TIPS) to grow on M9 minimal media ([2]; 20 mM, 40 h, 0.1% rhamnose): completely abolish

O=C(O)c1ccc(O)c([N+](=O)[O-])c1 [Compound 10, 4-Hydroxy-3-nitrobenzoic acid]
growth with gradually increasing rhamnose (EPSPS TIPS titration) ([3]; 0.4 mM, rhamnose 0%-0.4%, 60 h): facilitates growth in a gradual manner | % bacterial growth relative to rescue with wild type EPSPS at 5 mM, 40 h post application [1]: −61% | ability of rescued AB2829 bacteria cells (wild type EPSPS) to grow on M9 minimal media ([1]; 5 mM): completely abolish | LOLMU Germination (%) Mean ([4]; 50 mg a.i./L, 10 DAT): 95.6% | LOLMU Visual notation Mean ([4]; 50 mg a.i./L, 10 DAT): 18.4 | LOLMU Germination (%) Mean ([4]; 500 mg a.i./L, 10 DAT): 95.6% | LOLMU Visual notation Mean ([4]; 500 mg a.i./L, 10 DAT): 31.8 | LOLMU Germination (%) Mean ([4]; 5000 mg a.i./L, 10 DAT): 95.6% | LOLMU Visual notation Mean ([4]; 5000 mg a.i./L, 10 DAT): 54.0 | CHEAL Germination (%) Mean ([5]; 50 mg a.i./L, 10 DAT): 68.8% | CHEAL Visual notation Mean ([5]; 50 mg a.i./L, 10 DAT): 52.4 | CHEAL Germination (%) Mean ([5]; 500 mg a.i./L, 10 DAT): 81.7% | CHEAL Visual notation Mean ([5]; 500 mg a.i./L, 10 DAT): 54.4 | CHEAL Germination (%) Mean ([5]; 5000 mg a.i./L, 10 DAT): 56.7% | CHEAL Visual notation Mean ([5]; 5000 mg a.i./L, 10 DAT): 76.5 | % bacterial growth relative to rescue with mutant EPSPS at 20 mM, 40 h post application [2]: −21% | ability of rescued AB2829 bacteria cells (EPSPS TIPS) to grow on M9 minimal media ([2]; 20 mM, 40 h, 0.1% rhamnose): completely abolish

O=C(O)c1cc([N+](=O)[O-])cc([N+](=O)[O-])c1 [Compound 11, 3,5-Dinitrobenzoic acid]
growth with gradually increasing rhamnose (EPSPS TIPS titration) [3]: facilitates growth in a gradual manner | ability of rescued AB2829 bacteria cells (wild type EPSPS) to grow on M9 minimal media ([1]; 5 mM): completely abolish | % bacterial growth relative to rescue with wild type EPSPS at 5 mM, 40 h post application ([1]; 5 mM, 40 h post application, OD600, EPSPS null = 0%, Rescue = 100%): −38% | LOLMU Germination (%) Mean ([4]; in vivo): 82.2% and 95.6% | CHEAL Germination (%) Mean ([5]; in vivo): 73.3% and 66.1% and 37.6% | % bacterial growth relative to rescue with mutant EPSPS at 20 mM, 40 h post application [2]: −27% | ability of rescued AB2829 bacteria cells (EPSPS TIPS) to grow on M9 minimal media [2]: completely abolish

COC(=O)c1cc([N+](=O)[O-])cc([N+](=O)[O-])c1 [Compound 12, 3,5-Dinitrobenzoic acid methyl ester]
ability of rescued AB2829 bacteria cells (wild type EPSPS) to grow on M9 minimal media ([1]; 5 mM): completely abolish | % bacterial growth relative to rescue with mutant EPSPS at 20 mM, 40 h post application [2]: −29% | ability of rescued AB2829 bacteria cells (EPSPS TIPS) to grow on M9 minimal media [2]: completely abolish

O=C1NC(=O)c2c1ccc(O)c2O [Compound 13, 4,5-Dihydroxyisoindoline-1,3-dione]
growth with gradually increasing rhamnose (EPSPS TIPS titration) ([3]; 0.25 mM, rhamnose 0%-0.4%, 60 h): could not facilitates growth in a gradual manner | rescue of growth phenotype by titration of EPSPS TIPS intracellular levels ([3]; single inhibitory dose, rhamnose 0.0%-0.4%): couldn't rescue the growth phenotype | % bacterial growth relative to rescue with wild type EPSPS at 5 mM, 40 h post application [1]: −20% | ability of rescued AB2829 bacteria cells (wild type EPSPS) to grow on M9 minimal media ([1]; 5 mM): completely abolish | % bacterial growth relative to rescue with mutant EPSPS at 20 mM, 40 h post application [2]: −31% | ability of rescued AB2829 bacteria cells (EPSPS TIPS) to grow on M9 minimal media ([2]; 20 mM, 40 h, 0.1% rhamnose): completely abolish

O=C(O)c1cc([N+](=O)[O-])c(F)c(C(F)(F)F)c1 [Compound 14, 4-Fluoro-3-nitro-5-(trifluoromethyl)benzoic acid]
% bacterial growth relative to rescue with mutant EPSPS at 20 mM, 40 h post application [2]: −142% | ability of rescued AB2829 bacteria cells (EPSPS TIPS) to grow on M9 minimal media ([2]; 20 mM, 40 h, 0.1% rhamnose): completely abolish

O=C(O)c1cc([N+](=O)[O-])cc(C(F)(F)F)c1 [Compound 15, 3-Nitro-5-(trifluoromethyl) benzoic acid]
growth with gradually increasing rhamnose (EPSPS TIPS titration) ([3]; 0.6 mM, rhamnose 0%-0.4%, 60 h): facilitates growth in a gradual manner | % bacterial growth relative to rescue with wild type EPSPS at 5 mM, 40 h post application [1]: −177% | % bacterial growth relative to rescue with mutant EPSPS at 20 mM, 40 h post application [2]: −118% | ability of rescued AB2829 bacteria cells (EPSPS TIPS) to grow on M9 minimal media ([2]; 20 mM, 40 h, 0.1% rhamnose): completely abolish

O=C(O)c1cc(C(F)(F)F)cc([N+](=O)[O-])c1F [Compound 16, 2-Fluoro-3-nitro-5-(trifluoromethyl)benzoic acid]
% bacterial growth relative to rescue with mutant EPSPS at 20 mM, 40 h post application [2]: −56% | ability of rescued AB2829 bacteria cells (EPSPS TIPS) to grow on M9 minimal media ([2]; 20 mM, 40 h, 0.1% rhamnose): completely abolish

O=C(O)CNCP(=O)(O)O [Glyphosate, N-(phosphonomethyl)glycine, reference compound]
growth with gradually increasing rhamnose (EPSPS TIPS titration) [3]: facilitates growth in a gradual manner | effect of the TIPS mutation on inhibition of EPSPS activity (IC50 WT vs TIPS) (TIPS EPSPS): 3 orders of magnitude stronger | % bacterial growth relative to rescue with wild type EPSPS, 40 h post application [1]: +6.0% (0.7 mM) −46% (1.5 mM) | ability of rescued AB2829 bacteria cells (wild type EPSPS) to grow on M9 minimal media ([1]; 0.7 mM): could not facilitates growth | ability of rescued AB2829 bacteria cells (wild type EPSPS) to grow on M9 minimal media ([1]; 1.5 mM): could not facilitates growth | mode of EPSPS inhibition (Michaelis-Menten and Lineweaver-Burk plots) (WT EPSPS): competitive inhibitor | % bacterial growth relative to rescue with mutant EPSPS at 20 mM, 40 h post application [2]: +127% (+/−37%) | ability of rescued AB2829 bacteria cells (EPSPS TIPS) to grow on M9 minimal media ([2]; 20 mM, 40 h, 0.1% rhamnose): TIPS mutant is indifferent to glyphosate; also recorded: facilitates growth
